Data: patent publication US20210046143A1, “METHOD FOR TREATMENT OF THE HUMAN BODY BY THERAPY BY ADMINISTERING A COMPOSITION COMPRISING A PLANT EXTRACT OF THE SPECIE HEDYCHIUM CORONARIUM” (Societe D'exploitation De Produits Pour Les Industries …, priority 2016, published 2021)

Key:
Format in all cases: cell-based
[1] = test system: normal human keratinocytes; experiment: ROS detection with H2DCFDA probe in normal human keratinocytes; conditions: 20 minutes
Source text: • 1)—Background Information The aim of the present evaluation was to evaluate the antioxidant and antipollution effects of the extract HCR, against oxidative stress in normal human cultured keratinocytes extracted from abdominal plastic surgery (donor), using the H2DCFDA probe. […] It is cell-permeant and stable. When it penetrates the cell, acetate groups are cleaved by intracellular esterases. The resulting product is the dichlorodihydrofluorescein (or H2DCF), non-fluorescent. […] The probe oxidation is not specific of one type of ROS. The fluorescence is detected at wavelengths of 490 nm (excitation) and 525 nm (emission). […] A XTT assay was previously performed, to check the cells viability, in order to determine the concentrations to be tested, as described in Example 2. • 2)—Evaluation of Antioxidant Effect (H2DCFDA Probe) Normal human keratinocytes were seeded in 96-well microplates and are then treated with the test compound to be tested for 24 hours, before adding the fluorescent probe for detection of ROS and stimulating or not by the pollutant or hydrogen peroxide. This test is based on the use of a detection system, a probe, which is degraded and fluoresces on contact with ROS. […] After incubation, fluorescence was read at 490 nm (excitation) and 525 nm (emission) wavelengths (Tecan Safire II reader). Data are expressed as RFU (fluorescence units). […]

[2] = test system: mitochondria network of normal human fibroblasts (NHF); experiment: Mitochondrial network protection (MitoTracker staining) in UVA-irradiated fibroblasts; conditions: 500 μM, positive control
Description: b)-Normal human fibroblasts (NHF) extracted after plastic surgery from mammary skin dermis of a donor, were cultured as primary monolayers; a)-Fibroblasts were seeded into Petri dishes (at a cell density of 150,000 cells per dish, with a diameter of 60 mm, i.e. 7,700 NHF/cm^2), in the same medium as previously described (complete medium, i.e. with FBS), one day before treatment (incubation at 37° C.; 5% CO2). Each test compound concentration/dose (in one dish each) was then applied for 24 hours (in medium without sera; incubation at 37° C./5% CO2). […] b)-To evaluate the mitochondria staining, cells were incubated with a fluorescent probe (Invitrogen MitoTrackerTM). Cells were observed and photos were taken with x40 objective (Olympus […] microscope and […] Microvision software), with or without appropriate fluorescent filter. The photos allowed the visualization of the mitochondria network or of the whole cells, respectively. • 4)-Evaluation of the Effects on the Metabolic Activity (ATP & NAD^+/NADH Titrations)

[3] = test system: ATP production by normal human fibroblasts (NHF); experiment: ATP titration in fibroblasts, UVA-irradiated or not; conditions: 500 μM
Description: (§1) a)—In order to check the effects of UV and the tested product on cells metabolism, ATP and NAD^+/NADH titrations were performed. • (i)—Cells were seeded into 96-wells plates (at a cell density of 5,000 cells per well, i.e. 15,000 NHF/cm^2), in the same medium as previously described, one day before treatment. Then the treatment and irradiation timing was the same: first application for twenty-four hours (in medium without sera), then UVA-irradiation or not (same dose) and finally a second treatment for another twenty-four hours. As formerly, from the beginning to the end of the experiment, cells were incubated at 37° C./5% CO2. […] Measured quantity of this product (absorbance) is proportional to total NAD (NAD^+ and NADH) in each sample. • (v)—The ATP assay kit is an ATP monitoring system based on firefly (Photinus pyralis) luciferase. Added luciferase and D-luciferin react with ATP in samples to produce light, which measure (luminescence) is proportional to the ATP concentration. • b)—Raw data of both ATP and NAD^+/NADH titrations, i.e. luminescence units (RLU) or OD measurements obtained for respective standards, were plotted on graphics to determine standard curves. Then, the concentrations of ATP or NAD^+/NADH measured in the samples were determined. Quantitative values of each condition were averaged. […]

[4] = test system: NAD+/NADH production by normal human fibroblasts (NHF); experiment: NAD+/NADH titration in fibroblasts, UVA-irradiated or not; conditions: Vitamin C 500 μM, UVA-irradiated
Description: as §1

[5] = test system: lysosomes network of normal human fibroblasts (NHF); experiment: Lysosomal network protection (LysoTracker staining) in UVA-irradiated fibroblasts; conditions: 500 μM
Description: b)-Normal human fibroblasts (NHF) extracted after plastic surgery from mammary skin dermis of a donor, were cultured as primary monolayers; a)-Fibroblasts seeding was carried out as described in Example 2. b)-Cells were then incubated with a fluorescent probe (Invitrogen LysoTrackerTM). They were observed and photographed with x40 objective (Olympus CK40 microscope and […] Microvision software), with or without appropriate fluorescent filter. The photos allowed the visualization respectively of the lysosomes network or of the whole cells. c)-Fluorescence was quantified with Colombus software, by HCS Pharma (Rennes, France), as mean intensity (3 images for each condition). It is the mean value of intensity for each pixel of staining, contained in the cell area stained with LysoTracker (number of cells of each image is taken into account, as the final value is the mean of all cells values on the image). • 4)-Results

[6] = test system: Normal human fibroblasts (NHF); experiment: Autophagic activity (MDC assay) in fibroblasts irradiated with blue light; conditions: for Decrease of autophagic activity of irradiated fibroblast cells: irradiated at 453 nanometers
Description: • 1)—Background Information The purpose of the study is to evaluate effects of one HCR extracts on autophagic activities of in fibroblast irradiated with 453 nanometers blue light. The cells (normal human fibroblasts or (NHF)) are cultured as primary monolayer. Product to be tested is applied during 24 hours before irradiation and the n the product to be tested is applied during 24 hours . then autophagic activity is measured (MDC). Lysosomes are cytoplasmic organelles that permit recycling of cellular materials that have exceeded their lifetime or are otherwise no longer useful. Their main function is to digest endogeneous or exogeneous substrates (so called autophagy) in eukaryotic cells. Lysosomes break down cellular waste products, fats, carbohydrates, proteins, and other macromolecules into small compounds, which are transferred back into the cytoplasm as new cell-building materials. Indeed, its lipid membrane contains many enzymes, proton pumps and transport proteins. Acid pH is regulated to allow optimum activities of acid hydrolases [1]-[2]. The fluorescent LysoTracker probe is structured to easily insert in living cells (a fluorophore is linked to a weak base that is only partially protonated at neutral pH). This characteristic permits to this labeling/staining to be very selective for acid organelles i.e. the lysosomes. Then, effects of radiations, like blue light for instance, at lysosomal level can be evaluated. Indeed, these radiations lead to free radical formation and affect the normal lysosomes network, its distribution in the cell space. This can be visualized with specific fluorescent probe LysoTracker. Autophagy is an eukaryotic cell process that allow cytoplasmic materials digestion in a vacuole that fuses with the lysosome. Indeed, lysosomes can directly incorporate cytoplasmic fragments (micro-autophagy), or via autophagic vacuoles, named autophagosomes (macro-autophagy, fusion of lysosome and autophagosome is so called autolysosome). Autophagy is an important mechanism that allows the cell to mobilize its energy stocks to defend and destroy its damaged organelles and then avoid serious effects. This process permits elimination and replacement of proteins and non-functional organelles, then to ensure homeostasis. It is an essential cytoprotective mechanism that allows adaptive cell responses to different kinds of stress or damages, as nutritive privation (starvation). So it is necessary to cell survival, but also to other fundamental physiologic phenomena as development, immunity, cell differentiation (including keratinocytes differentiation to corneocytes in the epidermis). It is involved in longevity control, aging, and development of pathologies as cancer or diabetes, infectious, metabolic, or neuro-degenerative diseases. […] Three concentrations of the extract HCR are tested (weight/volume % of dry extract or DE, as it is a liquid extract), each dose being evaluated as quintuplicate (5 wells). Irradiation dose of 453 nm blue light is 40 J/cm^2 (23 mW/cm^2 for 29 minutes). b)—Cells are seeded into 96-wells microplates (at a cell density of 10,000 cells per well, i.e. 30,000 NHF/cm2), 24 hours before treatment (incubation at 37° C./5% CO2). […] Fibroblasts are then treated again with the product (curative effect) for another 24 h (so the total application is 48 h). Cells are seeded in complete medium: Dulbecco's modified Eagle medium or DMEM (Gibco 41966), with antibiotics (Gibco 15140) and 10% of foetal bovine serum or FBS (Gibco 10270). Treatments are done in medium without FBS. Irradiation is done in PBS (phosphate buffer saline). All incubation/treatment times are at 37° C./5% CO2 (except irradiation, done at room temperature). At the end of treatment, wells are delicately rinsed (PBS) and 0.05 mM MDC probe is applied on cells (Sigma 30432) (37° C./5% CO2). After incubation during 30 minutes and washes, fluorescence is measured at 380 nm (excitation) and 525 nm (emission) wavelengths (Tecan Safire II machine). […]

For `c1ccc2c(c1)cc1ccc3cccc4ccc2c1c34` [BaP, benzo(a)pyrene], the “Stimulation of ROS production comparatively to non-stimulated acetone solvent control” value ([1]; BaP 36 μM) was “+141%”.
With `OO` [hydrogen peroxide] the “Stimulation of ROS production comparatively to unstimulated control” value ([1]; hydrogen peroxide 1 mM) was “+808%”.
`O=C1O[C@H]([C@@H](O)CO)C(O)=C1O` [vitamin C, L-ascorbic acid] was tested, and the “Protection of mitochondria network against UV (MitoTracker images)” value [2] was “effects of UVA were less distinct”, the “ATP synthesis, change compared to irradiated control” value [3] was “+61%” and the “NAD+/NADH release by UV-irradiated cells” value [4] was “did not show expected positive effect”. For the same molecule, the “LysoTracker fluorescence mean intensity” value ([5]; highly significant) was “higher”, the “Protection of lysosomes network against UV (LysoTracker images)” value ([5]; positive control) was “diminished the effects of UVA” and the “RFU (means), MDC autophagic activity” value ([6]; 500 μMoles, irradiated (453 nanometers) NHF) was 95 RFU. The “RFU (means), MDC autophagic activity” value ([6]; 500 μMoles, non irradiated NHF) was 60 ^(***^) RFU and the “Decrease of autophagic activity of irradiated fibroblast cells” value ([6]; vitamin C) was 14%.
With `CC(=O)Oc1c(C)c(C)c2c(c1C)CCC(C)(CCC[C@H](C)CCC[C@H](C)CCCC(C)C)O2` (stereo partly drawn) [vitamin E, α-tocopherol acetate] the “RFU (means), MDC autophagic activity” value ([6]; 200 μMoles, irradiated (453 nanometers) NHF) was 86 ^(*^) RFU, the “RFU (means), MDC autophagic activity” value ([6]; 200 μMoles, non irradiated NHF) was 76 ^(**^) RFU and the “Decrease of autophagic activity of irradiated fibroblast cells” value ([6]; vitamin E) was 22%.
